From patent US20100093767A1, “Mitotic Kinase Inhibitors” (TAKEDA SAN DIEGO, INC., priority 2004, published 2010) come the findings set out here.

For this test, the target named is T1, KSP (HuEg5) (Homo sapiens, UniProt P52732).
T1 construct: I.D. No. 1 corresponds to residues 1-359 with the C-terminal 6-histidine tag; 6-histidine tag (C); made in house; host or cells: E. coli Tuner (DE3)
T1 sequence (P52732 with tags, fused parts or gaps): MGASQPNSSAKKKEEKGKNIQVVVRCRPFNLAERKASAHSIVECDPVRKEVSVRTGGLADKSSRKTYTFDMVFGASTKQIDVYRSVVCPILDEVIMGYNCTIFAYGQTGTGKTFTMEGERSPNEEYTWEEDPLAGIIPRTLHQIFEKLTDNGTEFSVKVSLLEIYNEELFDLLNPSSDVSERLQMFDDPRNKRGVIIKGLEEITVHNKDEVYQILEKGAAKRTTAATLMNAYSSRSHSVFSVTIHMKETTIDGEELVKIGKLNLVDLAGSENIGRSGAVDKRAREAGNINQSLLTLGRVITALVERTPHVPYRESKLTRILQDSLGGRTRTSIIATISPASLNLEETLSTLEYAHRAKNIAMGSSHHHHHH
Nature of the test: in vitro enzymatic KSP (HuEg5) ATPase activity assay. It is filed as biochemical. The following applies: reference compounds; coupled PK/LDH ATPase assay, 25 μM ATP, 12 nM enzyme, 60 minutes at room temperature. The text has this: The activity of compounds as KSP (HuEg5) inhibitors may be assayed in vitro, in vivo, or in a cell line. Further, compounds according to the present invention may be screened for activity against one or more kinesins. Provided below is the in vitro enzymatic KSP (HuEg5) ATPase activity assay for activity against KSP (HuEg5).
KSP (Eg5) DNA encoding residues 1-359 of the Kinesin motor domain sequence of the human enzyme may be amplified by PCR and cloned into the NcoI site of pET15b (Novagen), which incorporates a 6-histidine tag at the C-terminus. SEQ. I.D. No. 1 corresponds to residues 1-359 with the C-terminal 6-histidine tag and SEQ. I.D. No. 2 is the DNA sequence that was used to encode SEQ. […]
Recombinant protein may be isolated from cellular extracts by passage over ProBond resin (Invitrogen), and dialysis against buffer containing 25 mM Tris pH 7.6, 50 mM NaCl, 0.25 mM TCEP. The purity of KSP (Eg5) proteins may be determined on denaturing SDS-PAGE gel. […]
The inhibitory properties of compounds relative to KSP may be determined using a clear 384-well plate format under the following reaction conditions: 20 mM K-PIPES pH 6.8, 2 mM MgCl2, 1 mM EGTA, 1.5 mM KCl, 1 mM DTT, 0.01% Brij35, 25 μM ATP, 1 mM phosphoenolpyruvate (PEP), 0.4 mM NADH, 25 nM microtubules (MT), 1 μM Taxol, 30 units/ml rabbit muscle pyruvate kinase (PK), 30 units/ml rabbit muscle lactic dehydrogenase (LDH), and 2% DMSO. […]

Broadly, the IC50 is the point on the concentration scale where inhibition reaches its midpoint. The low end stands for greater potency in that assay, the high end for weaker potency in that assay. As to `CCCCN1C(=O)C2Cc3c([nH]c4ccccc34)C(c3cccc(O)c3)N2C1=O` (centres unmarked) [HR22C16], half-maximal inhibition (IC50) was put at 1.5 µM.
Under `CCOC(=O)C1=C(C)NC(=S)NC1c1cccc(O)c1` (centres unmarked) [Monastrol] stands 45 µM.
